Assay results: PubChem BioAssay AID1963830 (Molecular Pharmacology Branch, DTP, NCI, 2024)

Tested on: 922993-354-T-J3-PDC complex spheroid viability
Assay: Anticancer human tumor 922993-354-T-J3-PDC patient-derived endometrial carcinoma cell line growth inhibition [POLQ]
Conditions: for IC50: curve of first compound; for viability, T/C: stronger effect = lower value
Method in brief: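 Patient-derived tumour cells were co-cultured with HUVEC and mesenchymal stem cells as multicellular spheroids at 37 °C. They were treated with POLQ inhibitors (novobiocin, ART-558, RP6685) alone or combined with other agents. Top concentrations were at or near clinical Cmax (otherwise 10 microM; SN-38 at 1 microM), decreasing in half-log steps.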

[1] = second compound 0.0316 µM, first compound 0.0316 µM
[2] = second compound 0.0316 µM, first compound 0.1 µM
[3] = second compound 0.0316 µM, first compound 0.316 µM
[4] = second compound 0.0316 µM, first compound 1 µM
[5] = second compound 0.0316 µM, first compound 3.16 µM
[6] = second compound 0.0316 µM, first compound 10 µM
[7] = second compound 0.1 µM, first compound 0.0316 µM
[8] = second compound 0.1 µM, first compound 0.1 µM
[9] = second compound 0.1 µM, first compound 0.316 µM
[10] = second compound 0.1 µM, first compound 1 µM
[11] = second compound 0.1 µM, first compound 3.16 µM
[12] = second compound 0.1 µM, first compound 10 µM
[13] = second compound 0.316 µM, first compound 0.0316 µM
[14] = second compound 0.316 µM, first compound 0.1 µM
[15] = second compound 0.316 µM, first compound 0.316 µM
[16] = second compound 0.316 µM, first compound 1 µM
[17] = second compound 0.316 µM, first compound 3.16 µM
[18] = second compound 0.316 µM, first compound 10 µM
[19] = second compound 1 µM, first compound 0.0316 µM
[20] = second compound 1 µM, first compound 0.1 µM
[21] = second compound 1 µM, first compound 0.316 µM
[22] = second compound 1 µM, first compound 1 µM
[23] = second compound 1 µM, first compound 3.16 µM
[24] = second compound 1 µM, first compound 10 µM
[25] = second compound 3.16 µM, first compound 0.0316 µM
[26] = second compound 3.16 µM, first compound 0.1 µM
[27] = second compound 3.16 µM, first compound 0.316 µM
[28] = second compound 3.16 µM, first compound 1 µM
[29] = second compound 3.16 µM, first compound 3.16 µM
[30] = second compound 3.16 µM, first compound 10 µM
[31] = second compound 10 µM, first compound 0.0316 µM
[32] = second compound 10 µM, first compound 0.1 µM
[33] = second compound 10 µM, first compound 0.316 µM
[34] = second compound 10 µM, first compound 1 µM
[35] = second compound 10 µM, first compound 3.16 µM
[36] = second compound 10 µM, first compound 10 µM
[37] = second compound 0.0316 µM, first compound 0.00316 µM
[38] = second compound 0.0316 µM, first compound 0.01 µM
[39] = second compound 0.1 µM, first compound 0.00316 µM
[40] = second compound 0.1 µM, first compound 0.01 µM
[41] = second compound 0.316 µM, first compound 0.00316 µM
[42] = second compound 0.316 µM, first compound 0.01 µM
[43] = second compound 1 µM, first compound 0.00316 µM
[44] = second compound 1 µM, first compound 0.01 µM
[45] = second compound 3.16 µM, first compound 0.00316 µM
[46] = second compound 3.16 µM, first compound 0.01 µM
[47] = second compound 10 µM, first compound 0.00316 µM
[48] = second compound 10 µM, first compound 0.01 µM
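Further: spheroids exposed to the agents for one week.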
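Wherever viability, T/C is given: 100% = DMSO vehicle control wells.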

CCCS(=O)(=O)Nc1ccc(F)c(C(=O)c2c[nH]c3ncc(-c4ccc(Cl)cc4)cc23)c1F + Cc1cccc(N(C)C(=O)C2C(O)CCN2c2nc(C)cc(C(F)(F)F)c2C#N)c1
IC50 (second compound 0.0316 µM): > 10000 nM | IC50 (second compound 0.1 µM): > 10000 nM | IC50 (second compound 0.316 µM): > 10000 nM | IC50 (second compound 1 µM): > 10000 nM | IC50 (second compound 3.16 µM): > 10000 nM | IC50 (second compound 10 µM): > 10000 nM | viability, T/C [1]: 103% | viability, T/C [2]: 99.5% | viability, T/C [3]: 103% | viability, T/C [4]: 98.1% | viability, T/C [5]: 106% | viability, T/C [6]: 97.5% | viability, T/C [7]: 101% | viability, T/C [8]: 102% | viability, T/C [9]: 103% | viability, T/C [10]: 100% | viability, T/C [11]: 102% | viability, T/C [12]: 90.1% | viability, T/C [13]: 104% | viability, T/C [14]: 101% | viability, T/C [15]: 105% | viability, T/C [16]: 104% | viability, T/C [17]: 103% | viability, T/C [18]: 95.8% | viability, T/C [19]: 102% | viability, T/C [20]: 99.8% | viability, T/C [21]: 100% | viability, T/C [22]: 103% | viability, T/C [23]: 105% | viability, T/C [24]: 95% | viability, T/C [25]: 102% | viability, T/C [26]: 103% | viability, T/C [27]: 101% | viability, T/C [28]: 97.7% | viability, T/C [29]: 107% | viability, T/C [30]: 94.5% | viability, T/C [31]: 98.6% | viability, T/C [32]: 103% | viability, T/C [33]: 104% | viability, T/C [34]: 100% | viability, T/C [35]: 108% | viability, T/C [36]: 93.2%

CNCc1ccc(-c2[nH]c3cc(F)cc4c3c2CCNC4=O)cc1 + Cc1cccc(N(C)C(=O)C2C(O)CCN2c2nc(C)cc(C(F)(F)F)c2C#N)c1
IC50 (second compound 0.0316 µM): > 10000 nM | IC50 (second compound 0.1 µM): > 10000 nM | IC50 (second compound 0.316 µM): > 10000 nM | IC50 (second compound 1 µM): > 10000 nM | IC50 (second compound 3.16 µM): > 10000 nM | IC50 (second compound 10 µM): 8530 nM | viability, T/C [1]: 103% | viability, T/C [2]: 101% | viability, T/C [3]: 104% | viability, T/C [4]: 99.5% | viability, T/C [5]: 89.7% | viability, T/C [6]: 82.9% | viability, T/C [7]: 105% | viability, T/C [8]: 101% | viability, T/C [9]: 100% | viability, T/C [10]: 107% | viability, T/C [11]: 89.5% | viability, T/C [12]: 90% | viability, T/C [13]: 110% | viability, T/C [14]: 105% | viability, T/C [15]: 96.3% | viability, T/C [16]: 97.4% | viability, T/C [17]: 92.3% | viability, T/C [18]: 86.7% | viability, T/C [19]: 110% | viability, T/C [20]: 100% | viability, T/C [21]: 108% | viability, T/C [22]: 90.8% | viability, T/C [23]: 94.6% | viability, T/C [24]: 90.6% | viability, T/C [25]: 105% | viability, T/C [26]: 104% | viability, T/C [27]: 97% | viability, T/C [28]: 90.8% | viability, T/C [29]: 97.7% | viability, T/C [30]: 82.8% | viability, T/C [31]: 105% | viability, T/C [32]: 101% | viability, T/C [33]: 106% | viability, T/C [34]: 87.8% | viability, T/C [35]: 84.7% | viability, T/C [36]: 44.1%

COc1cccc(OCCCN)c1-c1cc(Nc2cnc(C#N)cn2)n[nH]1 + Cc1cccc(N(C)C(=O)C2C(O)CCN2c2nc(C)cc(C(F)(F)F)c2C#N)c1
IC50 (second compound 0.0316 µM): 603 nM | IC50 (second compound 0.1 µM): 585 nM | IC50 (second compound 0.316 µM): 610 nM | IC50 (second compound 1 µM): 599 nM | IC50 (second compound 3.16 µM): 436 nM | IC50 (second compound 10 µM): 140 nM | viability, T/C [37]: 107% | viability, T/C [38]: 107% | viability, T/C [1]: 103% | viability, T/C [2]: 104% | viability, T/C [3]: 89% | viability, T/C [4]: 19.8% | viability, T/C [39]: 104% | viability, T/C [40]: 104% | viability, T/C [7]: 103% | viability, T/C [8]: 97.7% | viability, T/C [9]: 91.3% | viability, T/C [10]: 14.5% | viability, T/C [41]: 102% | viability, T/C [42]: 101% | viability, T/C [13]: 101% | viability, T/C [14]: 98% | viability, T/C [15]: 93.5% | viability, T/C [16]: 17.2% | viability, T/C [43]: 102% | viability, T/C [44]: 98.8% | viability, T/C [19]: 103% | viability, T/C [20]: 98% | viability, T/C [21]: 92.4% | viability, T/C [22]: 16% | viability, T/C [45]: 103% | viability, T/C [46]: 106% | viability, T/C [25]: 101% | viability, T/C [26]: 99.5% | viability, T/C [27]: 65.1% | viability, T/C [28]: 10.7% | viability, T/C [47]: 99.2% | viability, T/C [48]: 101% | viability, T/C [31]: 94.3% | viability, T/C [32]: 65.5% | viability, T/C [33]: 13.2% | viability, T/C [34]: 9.72%

Cn1ncnc1[C@H]1c2n[nH]c(=O)c3cc(F)cc(c23)N[C@@H]1c1ccc(F)cc1 + Cc1cccc(N(C)C(=O)C2C(O)CCN2c2nc(C)cc(C(F)(F)F)c2C#N)c1
IC50 (second compound 0.0316 µM): > 100 nM | IC50 (second compound 0.1 µM): > 100 nM | IC50 (second compound 0.316 µM): > 100 nM | IC50 (second compound 1 µM): > 100 nM | IC50 (second compound 3.16 µM): 83 nM | IC50 (second compound 10 µM): 30.7 nM | viability, T/C (second compound 0.0316 µM, first compound 0.000316 µM): 97.8% | viability, T/C (second compound 0.0316 µM, first compound 0.001 µM): 95.5% | viability, T/C [37]: 111% | viability, T/C [38]: 98.3% | viability, T/C [1]: 99% | viability, T/C [2]: 70.2% | viability, T/C (second compound 0.1 µM, first compound 0.000316 µM): 108% | viability, T/C (second compound 0.1 µM, first compound 0.001 µM): 105% | viability, T/C [39]: 94.2% | viability, T/C [40]: 94.4% | viability, T/C [7]: 90.2% | viability, T/C [8]: 74.9% | viability, T/C (second compound 0.316 µM, first compound 0.000316 µM): 107% | viability, T/C (second compound 0.316 µM, first compound 0.001 µM): 106% | viability, T/C [41]: 102% | viability, T/C [42]: 106% | viability, T/C [13]: 91.2% | viability, T/C [14]: 67.2% | viability, T/C (second compound 1 µM, first compound 0.000316 µM): 107% | viability, T/C (second compound 1 µM, first compound 0.001 µM): 108% | viability, T/C [43]: 111% | viability, T/C [44]: 96.8% | viability, T/C [19]: 97.4% | viability, T/C [20]: 66.2% | viability, T/C (second compound 3.16 µM, first compound 0.000316 µM): 100% | viability, T/C (second compound 3.16 µM, first compound 0.001 µM): 101% | viability, T/C [45]: 99.9% | viability, T/C [46]: 96.8% | viability, T/C [25]: 92.3% | viability, T/C [26]: 41.6% | viability, T/C (second compound 10 µM, first compound 0.000316 µM): 111% | viability, T/C (second compound 10 µM, first compound 0.001 µM): 97.4% | viability, T/C [47]: 99% | viability, T/C [48]: 72.9% | viability, T/C [31]: 49.8% | viability, T/C [32]: 32%
